biological target: T1, Human TRPC6 (Homo sapiens, UniProt Q9Y210); assay: Evaluation of TRPC6 channel inhibitory activity (1), FLIPR Calcium 5 Assay Kit, OAG stimulation (Compound Nos. 1-1293); assay type: cell-based; conditions: Human TRPC6 stably-expressing cells, OAG 30 μM, FLIPR Calcium 5 Assay Kit; read-out: Inhibitory activity (pIC50 class) (converted)
T1 construct: expressed in transfected cells
T1 sequence (Q9Y210 1-931): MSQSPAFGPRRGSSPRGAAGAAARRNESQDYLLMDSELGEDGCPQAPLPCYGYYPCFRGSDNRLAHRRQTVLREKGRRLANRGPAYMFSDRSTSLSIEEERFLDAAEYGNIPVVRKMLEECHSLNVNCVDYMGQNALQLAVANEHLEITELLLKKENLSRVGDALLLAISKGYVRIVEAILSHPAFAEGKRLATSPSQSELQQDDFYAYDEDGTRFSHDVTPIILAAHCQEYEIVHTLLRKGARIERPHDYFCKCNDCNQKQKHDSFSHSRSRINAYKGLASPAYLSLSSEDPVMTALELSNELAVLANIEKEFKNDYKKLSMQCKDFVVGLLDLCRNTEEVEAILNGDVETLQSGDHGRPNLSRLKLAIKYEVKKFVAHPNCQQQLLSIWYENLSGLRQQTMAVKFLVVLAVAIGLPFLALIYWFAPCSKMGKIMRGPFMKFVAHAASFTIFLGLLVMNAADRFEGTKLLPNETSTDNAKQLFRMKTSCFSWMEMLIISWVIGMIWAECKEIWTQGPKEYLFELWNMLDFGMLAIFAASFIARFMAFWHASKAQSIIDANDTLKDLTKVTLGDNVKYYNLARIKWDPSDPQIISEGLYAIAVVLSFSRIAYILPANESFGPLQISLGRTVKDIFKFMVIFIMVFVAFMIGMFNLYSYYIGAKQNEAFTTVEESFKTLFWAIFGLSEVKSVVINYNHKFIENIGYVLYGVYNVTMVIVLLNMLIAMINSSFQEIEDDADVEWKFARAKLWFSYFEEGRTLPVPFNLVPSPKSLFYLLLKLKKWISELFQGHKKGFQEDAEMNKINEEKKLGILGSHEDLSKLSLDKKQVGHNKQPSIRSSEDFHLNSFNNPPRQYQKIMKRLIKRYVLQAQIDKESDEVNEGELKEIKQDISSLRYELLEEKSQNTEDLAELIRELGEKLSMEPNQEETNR
Method in brief: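 The FLIPR signal is maximum fluorescence after 30 μM OAG minus minimum before compound, measured in a human TRPC6 stable line loaded with Calcium 5 dye. Compounds were preincubated 20 min. pIC50 came from four-parameter logistic fitting of inhibition rates and is given as symbol ranges.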

IC50 [nM]	Structure (SMILES)
> 1000	N#Cc1ccc(-c2ccc(CCN)cc2)c(Oc2cnnc(-c3ccccc3C(=O)O)c2)c1 [Compound 121, 2-[5-[2-[4-(2-aminoethyl)phenyl]-5-cyanophenoxy]pyridazin-3-yl]benzoic acid]
< 10	Cc1nc(Oc2cc(C#N)ccc2-c2ccc(CCN)cc2)cc(N2CCC[C@@H]2C#N)n1 [Compound 130, (2R)-1-[6-[2-[4-(2-aminoethyl)phenyl]-5-cyanophenoxy]-2-methylpyrimidin-4-yl]pyrrolidine-2-carbonitrile]
< 10	Cc1nc(Oc2cc(C#N)ccc2-c2ccc(C(CN)C(F)F)cc2)cc(N2CCOCC2)n1 (stereo not shown) [Compound 133, 4-[4-(3-amino-1,1-difluoropropan-2-yl)phenyl]-3-(2-methyl-6-morpholin-4-ylpyrimidin-4-yl)oxybenzonitrile]
> 1000	N#Cc1ccc(-n2ccc(CN)n2)c(Oc2cnnc(-c3ccccc3)c2)c1 [Compound 135, 4-[3-(aminomethyl)pyrazol-1-yl]-3-(6-phenylpyridazin-4-yl)oxybenzonitrile]
10 to 1000	Cc1nc(Oc2cc(C#N)ccc2-n2cc(C(O)CN)cn2)cc(N2CCOCC2)n1 (stereo not shown) [Compound 136, 4-[4-(2-amino-1-hydroxyethyl)pyrazol-1-yl]-3-(2-methyl-6-morpholin-4-ylpyrimidin-4-yl)oxybenzonitrile]
10 to 1000	Cc1nc(Oc2cc(C#N)ccc2-n2cc(C(O)CN)cn2)cc(-c2ccc(F)cc2)n1 (stereo not shown) [Compound 140, 4-[4-(2-amino-1-hydroxyethyl)pyrazol-1-yl]-3-[6-(4-fluorophenyl)-2-methylpyrimidin-4-yl]oxybenzonitrile]
10 to 1000	Cc1nc(Oc2cc(C#N)ccc2-n2cc(C(O)CN)cn2)cc(-c2cccc(F)c2)n1 (stereo not shown) [Compound 141, 4-[4-(2-amino-1-hydroxyethyl)pyrazol-1-yl]-3-[6-(3-fluorophenyl)-2-methylpyrimidin-4-yl]oxybenzonitrile]
10 to 1000	Cc1ccc(-c2cc(Oc3cc(C#N)ccc3-n3cc(C(O)CN)cn3)nc(C)n2)cc1 (stereo not shown) [Compound 142, 4-[4-(2-amino-1-hydroxyethyl)pyrazol-1-yl]-3-[2-methyl-6-(4-methylphenyl)pyrimidin-4-yl]oxybenzonitrile]
> 1000	Cc1nc(Oc2cc(C#N)ccc2-c2nc(C)c(CN(C)C)s2)cc(-c2ccccc2)n1 [Compound 143, 4-[5-[(dimethylamino)methyl]-4-methyl-1,3-thiazol-2-yl]-3-(2-methyl-6-phenylpyrimidin-4-yl)oxybenzonitrile]
10 to 1000	Cc1nc(Oc2cc(C#N)ccc2-n2ccc(C(O)CN)n2)cc(N2CCOCC2)n1 (stereo not shown) [Compound 144, 4-[3-(2-amino-1-hydroxyethyl)pyrazol-1-yl]-3-(2-methyl-6-morpholin-4-ylpyrimidin-4-yl)oxybenzonitrile]
> 1000	Cc1nc(Oc2cc(C#N)ccc2-n2cc(C(=O)CN)cn2)cc(-c2ccccc2)n1 [Compound 146, 4-[4-(2-aminoacetyl)pyrazol-1-yl]-3-(2-methyl-6-phenylpyrimidin-4-yl)oxybenzonitrile]

The remaining lines, values behind:

Structure (SMILES)	IC50 [nM]
N#Cc1ccc(-c2ccc(CCN)cc2)c(Oc2cnnc(-c3ccccc3F)c2)c1 [Compound 116, 4-[4-(2-aminoethyl)phenyl]-3-[6-(2-fluorophenyl)pyridazin-4-yl]oxybenzonitrile]	10 to 1000
N#Cc1ccc(-c2ccc(CCN)cc2)c(Oc2cnnc(-c3ccccc3OC(F)(F)F)c2)c1 [Compound 117, 4-[4-(2-aminoethyl)phenyl]-3-[6-[2-(trifluoromethoxy)phenyl]pyridazin-4-yl]oxybenzonitrile]	10 to 1000
COc1ccccc1-c1cc(Oc2cc(C#N)ccc2-c2ccc(CCN)cc2)cnn1 [Compound 118, 4-[4-(2-aminoethyl)phenyl]-3-[6-(2-methoxypheny)pyridazin-4-yl]oxybenzonitrile]	10 to 1000
CC(=O)Nc1ccccc1-c1cc(Oc2cc(C#N)ccc2-c2ccc(CCN)cc2)cnn1 [Compound 119, N-[2-[5-[2-[4-(2-aminoethyl)phenyl]-5-cyanophenoxy]pyridazin-3-yl]phenyl]acetamide]	> 1000
COC(=O)c1ccccc1-c1cc(Oc2cc(C#N)ccc2-c2ccc(CCN)cc2)cnn1 [Compound 120, methyl 2-[5-[2-[4-(2-aminoethyl)phenyl]-5-cyanophenoxy]pyridazin-3-yl]benzoate]	< 10
N#Cc1ccc(-c2ccc(C(CN)C(F)(F)F)cc2)c(Oc2cnnc(N3CCOCC3)c2)c1 (stereo not shown) [Compound 122, 4-[4-(3-amino-1,1,1-trifluoropropan-2-yl)phenyl]-3-(6-morpholin-4-ylpyridazin-4-yl)oxybenzonitrile]	10 to 1000
N#Cc1ccc(-c2ccc(CCN)cc2)c(Oc2cnnc(O[C@H]3CCC[C@H]3O)c2)c1 [Compound 123, 4-[4-(2-aminoethyl)phenyl]-3-[6-[(1S,2R)-2-hydroxycyclopentyl]oxypyridazin-4-yl]oxybenzonitrile]	10 to 1000
N#Cc1ccc(-c2ccc(CCN)cc2)c(Oc2cnnc(O[C@H]3CCC[C@@H]3O)c2)c1 [Compound 124, 4-[4-(2-aminoethyl)phenyl]-3[6-[(1S,2S)-2-hydroxycyclopentyl]oxypyridazin-4-yl]oxybenzonitrile]	10 to 1000
N#Cc1ccc(-c2ccc(CCN)cc2)c(Oc2cnnc(OC3CCOC3)c2)c1 (stereo not shown) [Compound 125, 4-[4-(2-aminoethyl)phenyl]-3-[6-(oxolan-3-yloxy)pyridazin-4-yl]oxybenzonitrile]	10 to 1000
CC(C)(C)CCOc1cc(Oc2cc(C#N)ccc2-c2ccc(CCN)cc2)cnn1 [Compound 126, 4-[4-(2-aminoethyl)phenyl]-3-[6-(3,3-dimethylbutoxy)pyridazin-4-yl]oxybenzonitrile]	> 1000
CC(C)(C)OCCOc1cc(Oc2cc(C#N)ccc2-c2ccc(CCN)cc2)cnn1 [Compound 127, 4-[4-(2-aminoethyl)phenyl]-3-[6-[2-[(2-methylpropan-2-yl)oxy]ethoxy]pyridazin-4-yl]oxybenzonitrile]	> 1000
Cc1cc(N2CCOCC2)cc(Oc2cc(C#N)ccc2-c2ccc(CCN)cc2)n1 [Compound 128, 4-[4-(2-aminoethyl)phenyl]-3-(6-methyl-4-morpholin-4-ylpyridin-2-yl)oxybenzonitrile]	> 1000
Cc1nc(Oc2cc(C#N)ccc2-c2nc(C)c(C(O)CN)s2)cc(N2CCOCC2)n1 (stereo not shown) [Compound 129, 4-[5-(2-amino-1-hydroxyethyl)-4-methyl-1,3-thiazol-2-yl]-3-(2-methyl-6-morpholin-4-ylpyrimidin-4-yl)oxybenzonitrile]	> 1000
Cc1nc(Oc2cc(C#N)ccc2-c2ccc3c(c2)CC(N)C3=O)cc(N2CCOCC2)n1 (stereo not shown) [Compound 131, 4-(2-Amino-1-oxo-2,3-dihydroinden-5-yl)-3-(2-methyl-6-morpholin-4-ylpyrimidin-4-yl)oxybenzonitrile]	> 1000
Cc1nc(Oc2cc(C#N)ccc2-c2ccc3c(c2)CCC3N)cc(N2CCOCC2)n1 (stereo not shown) [Compound 132, 4-(1-amino-2,3-dihydro-1H-inden-5-yl)-3-(2-methyl-6-morpholin-4-ylpyrimidin-4-yl)oxybenzonitrile]	10 to 1000
Cc1nc(Oc2cc(C#N)ccc2-c2ccc3c(c2)CC(N)C3O)cc(N2CCOCC2)n1 (stereo not shown) [Compound 134, 4-(2-amino-1-hydroxy-2,3-dihydro-1H-inden-5-yl)-3-(2-methyl-6-morpholin-4-ylpyrimidin-4-yl)oxybenzonitrile]	10 to 1000
N#Cc1ccc(-c2ccc(CCN)cc2)c(Oc2cnnc(C3CCCC3)c2)c1 [Compound 137, 4-[4-(2-aminoethyl)phenyl]-3-(6-cyclopentylpyridazin-4-yl)oxybenzonitrile]	< 10
Cc1cc(Oc2cc(C#N)ccc2-c2ccc(CCN)cc2)cc(N2CCOCC2)n1 [Compound 138, 4-[4-(2-aminoethyl)phenyl]-3-(2-methyl-6-morpholin-4-ylpyridin-4-yl)oxybenzonitrile]	< 10
N#Cc1ccc(-c2ccc(C(CN)C(F)F)cc2)c(Oc2cnnc(N3CCOCC3)c2)c1 (stereo not shown) [Compound 139, 4-[4-(3-amino-1,1-difluoropropan-2-yl)phenyl]-3-(6-morpholin-4 ylpyridazin-4-yl)oxybenzonitrile]	10 to 1000
N#Cc1ccc(-c2ccc(CCN)cc2)c(Oc2cc(N3CCOCC3)cnn2)c1 [Compound 145, 4-[4-(2-aminoethyl)phenyl]-3-(5-morpholin-4-ylpyridazin-3-yl)oxybenzonitrile]	10 to 1000

Source: patent US20230167073A1 (Teijin Pharma Limited, priority 2020, published 2023)
